# According to US20250249025A1, “DRUG DELIVERY CARRIER UTILIZING PROPERTY OF D-ALLOSE BEING UPTAKEN BY CANCER CELL, DRUG DELIVERY METHOD, AND COMPOSITION FOR TREATING RENAL CELL CARCINOMA” (NATIONAL UNIVERSITY CORPORATION KAGAWA UNIVERSITY, priority 2019, published 2025):
# Test system: renal cell carcinoma cell line (ACHN)
# Test: Cell survival assay (MTT assay), ACHN
# Format: cell-based, human
# Details: 10 mM, 25 mM and 50 mM in MEM, 24 hours, compared with Control (p<0.05), FIG. 1
# Method: The antitumor effect of rare sugars was analyzed using the three human renal cell carcinoma cell lines (ACHN, Caki-I, and Caki-II) used in Example 1. As the rare sugars, used were the following ten rare sugars: L-allulose, D-allulose, D-allose, L-fructose, D-mannose, L-sorbose, D-tagatose, D-galactose, D-sorbose, and L-tagatose, while as monosaccharides not belonging to rare sugars, D-glucose and D-fructose were used.
# As a medium, a minimum essential medium (MEM) containing 1000 mg/l of D-glucose was used. By adjusting it to contain 10 mM, 25 mM, and 50 mM of each of the monosaccharides or rare sugars and using thus-obtained MEMs [shown by (10), (25), and (50) in the drawing], an antitumor effect of the rare sugars was evaluated.
# A 5.0×10^4 cells/ml of each of cell suspensions was formed using MEM. The resulting suspension (0.1 ml/well) was distributed in a 96-well plate, followed by culturing for 24 hours. […]
# The MTT assay is one of test methods for measuring survival and makes use of a color reaction of an insoluble formazan dye (blue) caused by the reduction of MTT which is a tetrazolium salt. […] The cell viability is determined by measuring this color reaction with a microplate reader.
compound,measurement,value
O=C[C@H](O)[C@H](O)[C@H](O)[C@H](O)CO [D-allose],Viability,significantly reduced the viability
